Structures can show the parent of a compound that is named as a salt. Where two headings read alike, the source gives them in different places.

By LD50 is commonly meant the dose expected to kill half of the subjects tested. Read a low LD50 as greater toxicity.

Series [1] in a line: physchem. It is filed as physicochemical. To be noted: 5% dextrose solution, read-out: antibacterial activity retained in a 24 hour period. The protocol:
The antibacterial activity retained in a 24 hour period by the acetaldehyde derivative when dissolved in 5% dextrose solutions at 0.5 and 1.0% concentration is 83% and 80% respectively. The sodium salt of amoxicillin retains less than 40% activity under the same conditions.

In series [2] the test system is S. typhosa. In words: Curative dose against systemic S. typhosa infection. Conditions: Mus musculus, sc, read-out: CD50 (the source's name). It is filed as in vivo, mice.
Series [3] deals with S. typhosa. The series is described as above. To be noted: Mus musculus, po, read-out: CD50 (the source's name). It is filed as in vivo, mice. As to the method: (§1) In order to illustrate the relative activity of the compounds of this invention as compared to amoxicillin, the compounds, represented by the acetaldehyde derivative, were tested orally against systemic bacterial infections of mice with the following results. The CD50 is the curative dose in 50% of the animals treated against a challenge organism.

The test system of series [4] is E. coli. In words: Curative dose against systemic E. coli infection. It is filed as in vivo, mice. Conditions: Escherichia coli, in Mus musculus, po. The protocol: as §1
In series [5] the test system is D. pneumoniae. In words: Curative dose against systemic D. pneumoniae infection. It is filed as in vivo, mice. To be noted: Streptococcus pneumoniae, in Mus musculus, read-out: CD50 (the source's name).
Series [6] concerns K. pneumoniae. Nature of the series: Curative dose against systemic K. pneumoniae infection. Conditions: Klebsiella pneumoniae, in Mus musculus, read-out: CD50 (the source's name). It is filed as in vivo, mice.
The nature of series [7]: Stability in aqueous solution at room temperature, microbiological assay using B. subtilis. To be noted: water. As to the method: To illustrate the relative stability of the compounds of this invention in aqueous solution at room temperature the sodium salts of the compounds were tested as 20% by weight aqueous solutions for activity by microbiological assay using B. subtilis as the test organism and compared to 10% and 20% aqueous solutions of amoxicillin sodium salt and 10% aqueous solution of the acetone derivative of amoxicillin.

Series [8] concerns S. schottmuelleri. Nature of the series: Curative dose against systemic S. schottmuelleri infection. It is filed as in vivo, mice. Conditions: Mus musculus, read-out: CD50 (the source's name).
Series [9] deals with S. pyogenes. Nature of the series: Curative dose against systemic S. pyogenes infection. It is filed as in vivo, mice. To be noted: Streptococcus pyogenes, in Mus musculus, read-out: CD50 (the source's name).
Series [10] in a line: in vivo.
Series [11] concerns E. coli. Nature of the series: Curative dose against systemic E. coli infection. It is filed as in vivo, mice. Conditions: Escherichia coli, in Mus musculus, read-out: CD50 (the source's name).
The test system of series [12] is S. aureus. In words: Curative dose against systemic S. aureus infection. To be noted: Staphylococcus aureus, in Mus musculus, read-out: CD50 (the source's name). It is filed as in vivo, mice.
The mark [13] stands for this setting: Table 3(b), acetaldehyde derivative comparison.
[14] abbreviates: Table 3(b), po, acetaldehyde derivative comparison.
Where [15] appears, read: Table 3(b), sc, acetaldehyde derivative comparison.
The mark [16] stands for this setting: butyraldehyde derivative comparison.
The mark [17] stands for this setting: po, butyraldehyde derivative comparison.
Where [18] appears, read: sc, butyraldehyde derivative comparison.

For `CC1N[C@H](c2ccc(O)cc2)C(=O)N1[C@@H]1C(=O)N2[C@@H]1SC(C)(C)[C@@H]2C(=O)O` (stereo partly drawn) [Acetaldehyde derivative], the results for the remaining at 24 h in series [1] (0.5% concentration), in series [1] (1.0% concentration) and in series [7] were 83%, 80% and 94%, respectively. Besides, the ED50 amounted to 6.5 mg/kg in [2] (setting [13]); 8.8 mg/kg in [3] (setting [13]); 4.6 mg/kg in series [4] (Table 3(b), acetaldehyde derivative comparison, read-out: CD50 (the source's name)); 5 mg/kg in series [4] (read-out: CD50, Table 2, PO, mice); 12 mg/kg in series [5] (setting [14]); 0.76 mg/kg in series [5] (setting [15]). The ED50 in [6] (setting [14]) was 17 mg/kg; in series [6] (setting [15]), 11 mg/kg; in series [8] (setting [14]), 6.4 mg/kg; in [8] (setting [15]) it was 3.4 mg/kg; in [9] (setting [14]) it was 1.7 mg/kg; in series [9] (setting [15]), less than 0.05 mg/kg. Moreover, the ED50 in series [11] (sc, Table 3(b), sc, acetaldehyde derivative comparison) was found to be 6.9 mg/kg; in series [12] (setting [14]), 0.77 mg/kg; in [12] (setting [15]) it was 1.3 mg/kg. Besides, the remaining at 1 h in series [7] turned out to be 100%. The molecule also had a remaining at 2 h in series [7] of 99%. Also, in [7], the remaining at 4 h stood at 99%. Further, the remaining at 6 h in series [7] came out at 98%. Moreover, the remaining at 6.5 h in series [7] stood at 98%. Further, the LD50 in series [10] (ip) is 9200 mg/kg; in [10] (po) it was more than 10000 mg/kg; in [10] (sc), more than 10000 mg/kg.
For `CC1(C)S[C@@H]2[C@H](NC(=O)[C@H](N)c3ccc(O)cc3)C(=O)N2[C@H]1C(=O)O` [Amoxicillin sodium salt], the remaining at 24 h in [1] (5% dextrose solutions, same conditions (0.5 and 1.0%)) is less than 40%. In [7], this molecule registered a remaining at 1 h of 100%, a remaining at 2 h of 91%, a remaining at 4 h of 65% and a remaining at 6 h of 59%. Also, in series [7], the remaining at 6.5 h came to 58% and the remaining at 24 h was found to be 38%.
For the molecule `CCCC1N[C@H](c2ccc(O)cc2)C(=O)N1[C@@H]1C(=O)N2[C@@H]1SC(C)(C)[C@@H]2C(=O)O` (stereo partly drawn) [Butyraldehyde derivative], the ED50 in series [2] (setting [16]) came to 0.85 mg/kg; in series [3] (setting [16]) it was 2.9 mg/kg; in series [5] (setting [17]), 2.1 mg/kg; in series [5] (setting [18]), 2.5 mg/kg; in series [6] (setting [17]) it was 46 mg/kg; in series [6] (setting [18]), 16 mg/kg. Also, the ED50 is 5.7 mg/kg in series [8] (setting [17]); 3.2 mg/kg in [8] (setting [18]); less than 0.05 mg/kg in series [9] (setting [17]); 0.01 mg/kg in [9] (setting [18]); 12 mg/kg in series [11] (setting [17]); 3.9 mg/kg in [11] (setting [18]). In addition, the ED50 worked out at 0.2 mg/kg in series [12] (setting [17]) and 0.11 mg/kg in series [12] (setting [18]). This molecule showed a remaining at 1 h in series [7] of 95%. Further, the remaining at 2 h in [7] was 83%. In addition, the remaining at 6 h in [7] turned out to be 83%. Also, in series [7], the remaining at 24 h amounted to 70%. Also, the values for the LD50 in [10] (ip), in [10] (po) and in series [10] (sc) were 7270 mg/kg, more than 10000 mg/kg and 10000 mg/kg, respectively.
